Assays:
[1] = target: T1, angiotensin converting enzyme (ACE) (Oryctolagus cuniculus, UniProt P12822); test: ACE inhibition in vitro with hippuryl-L-histidine-L-leucine as substrate (method of Biochemical Pharmacology, 20, 1637 (1971)); design: species or system rabbit (lung); settings: read-out: 50% inhibition concentration (ID50)
T1 construct: ACE extracted from rabbit lung and purified; from tissue; host or cells: rabbit lung
T1 sequence (P12822 34-1310): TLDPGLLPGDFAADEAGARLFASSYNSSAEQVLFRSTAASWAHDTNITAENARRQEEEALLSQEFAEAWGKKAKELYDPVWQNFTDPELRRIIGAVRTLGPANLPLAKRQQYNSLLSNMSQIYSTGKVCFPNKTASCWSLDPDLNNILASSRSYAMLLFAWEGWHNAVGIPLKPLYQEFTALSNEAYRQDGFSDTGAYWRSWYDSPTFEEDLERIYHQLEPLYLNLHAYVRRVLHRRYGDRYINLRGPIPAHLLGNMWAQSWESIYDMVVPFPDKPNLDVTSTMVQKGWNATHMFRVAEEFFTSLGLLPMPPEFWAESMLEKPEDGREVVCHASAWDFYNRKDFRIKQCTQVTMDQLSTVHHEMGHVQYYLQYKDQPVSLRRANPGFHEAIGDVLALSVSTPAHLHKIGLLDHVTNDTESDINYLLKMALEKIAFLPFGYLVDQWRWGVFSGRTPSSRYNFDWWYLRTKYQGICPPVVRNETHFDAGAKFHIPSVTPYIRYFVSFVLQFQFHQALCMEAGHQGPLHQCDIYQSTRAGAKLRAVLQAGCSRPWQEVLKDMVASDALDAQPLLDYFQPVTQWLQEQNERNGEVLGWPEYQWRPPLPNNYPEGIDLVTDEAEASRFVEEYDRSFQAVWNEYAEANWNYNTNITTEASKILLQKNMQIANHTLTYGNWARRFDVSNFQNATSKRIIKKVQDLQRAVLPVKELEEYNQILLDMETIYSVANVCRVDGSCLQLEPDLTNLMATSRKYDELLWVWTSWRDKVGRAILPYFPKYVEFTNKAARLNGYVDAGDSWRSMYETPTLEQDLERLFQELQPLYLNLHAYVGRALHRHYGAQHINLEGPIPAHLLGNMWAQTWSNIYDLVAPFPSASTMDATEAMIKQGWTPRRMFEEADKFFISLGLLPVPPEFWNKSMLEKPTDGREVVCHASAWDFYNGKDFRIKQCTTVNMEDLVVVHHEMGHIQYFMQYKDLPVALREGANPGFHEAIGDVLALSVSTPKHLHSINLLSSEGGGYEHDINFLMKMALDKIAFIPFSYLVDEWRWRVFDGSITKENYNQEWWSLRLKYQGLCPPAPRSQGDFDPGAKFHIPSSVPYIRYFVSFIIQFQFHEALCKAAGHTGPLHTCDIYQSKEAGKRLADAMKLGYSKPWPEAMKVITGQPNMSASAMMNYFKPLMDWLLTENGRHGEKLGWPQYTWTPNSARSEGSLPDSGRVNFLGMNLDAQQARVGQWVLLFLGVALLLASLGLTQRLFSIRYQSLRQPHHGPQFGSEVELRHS
Description: (§1) The compounds [I] according to the present invention may be expected to be useful as a […], since they have an excellent ACE inhibitory effect. This has been well evidenced by an experiment using ACE extracted from rabbit lung and purified. The ACE inhibitory effect of the compounds of the present invention was determined according to the following illustrative test and the results will be shown in the following Table 1.
The compounds of the present invention act to inhibite angiotensin converting enzyme which converts angiotensin I, produced by the action of the enzyme renin from angiotensinogen, to angiotensin II which acts as a pressor agent. Therefore, these compounds may be expected to be effective in the treatment of hypertension.

[2] = tested on: angiotensin converting enzyme (ACE); test: Inhibition of the angiotensin-induced rise in blood pressure in rats after oral administration (illustrative test, ACE inhibitory effect); type: in vivo, male rats (Spraque-Dawleg); settings: angiotensin I 300 ng/kg and angiotensin II 100 ng/kg i.v., maximum blood pressure rise vs control
Description: as §1
In this test, male rats (Spraque-Dawleg) of 250 to 350 g in weight were used, which were raised under conditions of free access to food and water.
The day before the test, each rat was narcotized by sodium pentobarbital (50 mg/kg) injected intraperitoneally. A polyethylene tube was inserted into a vein at the groin and fixed in order to introduce angiotensin and, further, another polyethylene tube was inserted into an artery at the groin and fixed to measure the blood pressure thereof. The blood pressure was determined by the use of an electronic sphygmomanometer (Nihon Kohden Kogyo Co., Ltd. type MP-4T).
Each rat was injected with 300 ng/kg of angiotensin I and 100 ng/kg of angiotensin II through the vein at the groin and the blood pressure recorded periodically and the maximum value of the rise in the blood pressure resulting from the injection of angiotensin was determined for use as a control.
Then, the percentage of inhibitory effect was determined by orally administering 13.8 μM/kg of a compound of the invention to each rat, and injecting 300 ng/kg of angiotensin I and 100 ng/kg of angiotensin II into the vein at the groin at periods of 20, 60 or 120 minutes after the administration of the compound, with maximum blood pressures being determined by periodically measuring the blood pressure and comparing each maximum value obtained with that of the controls.

SMILES | IC50 [1] | Inhibition (%) ([2]; 20 min after oral 13.8 μM/kg) | Inhibition (%) ([2]; 60 min after oral 13.8 μM/kg) | Inhibition (%) ([2]; 120 min after oral 13.8 μM/kg)
O=C(O)C1Cc2ccccc2C(=O)N1C(=O)CCS (centres unmarked) [Example 1, 2-(3-mercaptopropionyl)-1-oxo-1,2,3,4-tetrahydro-3-isoquinoline carboxylic acid] | 51 nM | 81% | 78% | 59%
CC(CS)C(=O)N1C(=O)c2ccccc2CC1C(=O)O (centres unmarked) [Example 2, 2-(3-mercapto-2-methylpropionyl)-1-oxo-1,2,3,4-tetrahydro-3-isoquinoline carboxylic acid] | 73 nM | 83% | 70% | 72%

Source: patent publication US4537967A, “1-Oxo-1,2,3,4-tetrahydro-3-isoquinoline carboxylic acid derivatives” (Wakamoto Pharmaceutical Co., Ltd., priority 1982, dated 1985)
